In assay [1] the target is T1, Tyrosine-protein kinase JAK2 (Homo sapiens, UniProt O60674). Nature of the assay: Inhibition of JAK2 (unknown origin).
Assay [2] deals with T2, Tyrosine-protein kinase JAK3 (Homo sapiens, UniProt P52333).
T2 sequence (P52333 whole entry): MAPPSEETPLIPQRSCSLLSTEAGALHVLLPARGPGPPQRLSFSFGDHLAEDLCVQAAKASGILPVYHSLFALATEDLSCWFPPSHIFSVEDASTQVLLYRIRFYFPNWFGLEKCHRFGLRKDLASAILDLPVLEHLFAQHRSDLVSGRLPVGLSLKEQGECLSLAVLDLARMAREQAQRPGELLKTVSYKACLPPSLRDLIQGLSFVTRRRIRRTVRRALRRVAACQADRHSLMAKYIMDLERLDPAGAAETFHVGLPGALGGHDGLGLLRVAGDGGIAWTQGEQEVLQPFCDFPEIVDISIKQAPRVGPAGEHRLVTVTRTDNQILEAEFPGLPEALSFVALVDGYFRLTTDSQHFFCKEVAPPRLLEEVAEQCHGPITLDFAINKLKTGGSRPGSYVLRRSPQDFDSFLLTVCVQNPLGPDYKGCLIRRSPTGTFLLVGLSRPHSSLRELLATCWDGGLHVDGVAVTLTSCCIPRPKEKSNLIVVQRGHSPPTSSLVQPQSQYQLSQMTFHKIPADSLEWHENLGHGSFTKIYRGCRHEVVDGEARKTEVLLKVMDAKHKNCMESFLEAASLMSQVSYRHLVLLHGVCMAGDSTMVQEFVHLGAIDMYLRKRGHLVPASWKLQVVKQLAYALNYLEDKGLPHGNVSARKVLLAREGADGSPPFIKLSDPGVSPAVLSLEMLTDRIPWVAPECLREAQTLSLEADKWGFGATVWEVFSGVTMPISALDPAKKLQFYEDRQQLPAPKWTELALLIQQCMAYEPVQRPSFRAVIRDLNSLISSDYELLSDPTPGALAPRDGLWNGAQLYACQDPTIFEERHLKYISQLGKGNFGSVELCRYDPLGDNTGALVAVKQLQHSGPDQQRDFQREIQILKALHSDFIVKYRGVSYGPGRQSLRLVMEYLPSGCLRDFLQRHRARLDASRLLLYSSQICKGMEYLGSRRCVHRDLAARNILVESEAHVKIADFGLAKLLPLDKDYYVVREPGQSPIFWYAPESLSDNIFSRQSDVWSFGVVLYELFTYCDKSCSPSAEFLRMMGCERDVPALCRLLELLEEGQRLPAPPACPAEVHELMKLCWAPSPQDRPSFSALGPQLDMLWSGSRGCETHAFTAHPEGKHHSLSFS
Nature of the assay: Inhibition of JAK3 (unknown origin).

The target in assay [3] is Tyrosine-protein kinase JAK2 (Homo sapiens, UniProt O60674, V617F). Nature of the assay: Inhibition of JAK2 V617F mutant (unknown origin).
Assay [4] concerns the target T1, Tyrosine-protein kinase JAK2. Nature of the assay: Inhibition of wild type JAK2 (unknown origin).

pIC50: −log10 of the molar value.

T1 sequence (O60674 whole entry): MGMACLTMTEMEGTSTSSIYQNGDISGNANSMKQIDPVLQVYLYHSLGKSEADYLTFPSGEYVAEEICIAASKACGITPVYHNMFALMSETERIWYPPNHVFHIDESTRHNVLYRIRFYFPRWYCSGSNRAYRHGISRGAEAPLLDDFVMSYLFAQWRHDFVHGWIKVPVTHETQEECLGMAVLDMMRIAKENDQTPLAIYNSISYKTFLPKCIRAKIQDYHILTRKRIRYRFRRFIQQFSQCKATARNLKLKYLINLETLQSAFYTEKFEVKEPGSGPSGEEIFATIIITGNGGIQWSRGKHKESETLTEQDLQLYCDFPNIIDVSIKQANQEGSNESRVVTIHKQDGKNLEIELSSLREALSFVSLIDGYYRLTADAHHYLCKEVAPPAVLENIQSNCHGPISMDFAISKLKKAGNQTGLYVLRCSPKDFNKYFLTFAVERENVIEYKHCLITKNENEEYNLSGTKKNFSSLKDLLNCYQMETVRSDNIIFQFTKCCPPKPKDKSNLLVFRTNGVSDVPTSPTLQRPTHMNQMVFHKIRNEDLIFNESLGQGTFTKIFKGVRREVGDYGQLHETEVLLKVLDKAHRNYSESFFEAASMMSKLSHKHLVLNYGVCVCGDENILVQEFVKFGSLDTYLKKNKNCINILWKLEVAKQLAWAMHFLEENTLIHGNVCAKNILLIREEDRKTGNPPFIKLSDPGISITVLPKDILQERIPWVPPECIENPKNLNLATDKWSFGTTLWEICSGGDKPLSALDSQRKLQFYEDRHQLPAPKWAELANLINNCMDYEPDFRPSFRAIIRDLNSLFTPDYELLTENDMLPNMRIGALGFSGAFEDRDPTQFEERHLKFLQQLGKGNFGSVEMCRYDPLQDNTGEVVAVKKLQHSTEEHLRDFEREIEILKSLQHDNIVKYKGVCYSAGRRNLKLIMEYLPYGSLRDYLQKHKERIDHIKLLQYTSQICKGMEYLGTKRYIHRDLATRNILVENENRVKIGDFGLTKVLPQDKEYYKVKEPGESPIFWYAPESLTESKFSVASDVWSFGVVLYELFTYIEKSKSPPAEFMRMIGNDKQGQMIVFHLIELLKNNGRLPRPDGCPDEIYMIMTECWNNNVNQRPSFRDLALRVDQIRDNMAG
Chain of Tyrosine-protein kinase JAK2 (Homo sapiens, UniProt O60674, V617F) (O60674 whole entry V617F): as the sequence (O60674 whole entry) above, with V617F counted along it

As to `COc1nn(C)cc1Nc1nccc(-c2c[nH]c3c(NC(=O)[C@@H](C)N4CCN(C)CC4)cccc23)n1` [GOLIDOCITINIB], the figures for the pIC50 in assay [1] and in assay [2] were 4.83 and 4.52, respectively.

With `Cc1cc(Nc2cc(CN3CCOCC3)c3nc(C)c(Cc4ccc(Cl)cc4F)n3n2)n[nH]1` [GANDOTINIB], the figures for the negative logarithm of the IC50 (pIC50) in assay [1], in assay [3] and in assay [4] were 7.17, 7.26 and 5.65, respectively.

As usually defined, the pIC50 is −log10 of the IC50, conventionally taken in molar units.

For the origin of these results see ChEMBL document CHEMBL5505949, “Synthesis and clinical application of small-molecule inhibitors of Janus kinase” (Eur J Med Chem, 2023).
